Experimental data: patent publication US9493506B2 (Enanta Pharmaceuticals, Inc., priority 2010, dated 2016)

What was measured:
Assay type in all cases: cell-based, hepatitis C virus (genotype 1a-H77)
[1] = test system: HCV replicon with a D168V mutation in a 1a-H77 background; experiment: transient replicon assay, D168V mutation in 1a-H77 background; settings: Hepatitis C virus, read-out: EC50 in a transient replicon assay with a D168V mutation in a 1a-H77 background
Procedure: (§1) Replicon cell lines can be maintained in Dulbecco's modified Eagles medium (DMEM) containing 100 IU/ml penicillin, […] streptomycin (Invitrogen), […] G418 (Invitrogen) and 10% (v/v) fetal bovine serum (FBS). Replicon-containing cells can be seeded into 96 well plates at a density of 5000 cells per well in 100 μl DMEM containing 5% FBS. The next day, the compound can be initially diluted in dimethyl sulfoxide (DMSO) to generate a 200× stock of the inhibitor in a series of 8 half-log dilutions. The dilution series can then be diluted 100-fold in the medium containing 5% FBS. One hundred microliters of medium with the inhibitor can be added to each well of the overnight cell culture plate already containing 100 μl of DMEM with 5% FBS. In assays where the protein binding effect on inhibitor potency is assessed, the medium from the overnight cell culture plates can be replaced with 200 μl DMEM containing 40% human plasma (Innovative Research) plus 5% FBS as well as compound. The cells can be grown for 4 days in tissue culture incubators. The inhibitory effects of compounds against the replicons can be determined by measuring either the level of luciferase or HCV RNA. The luciferase assay can be conducted using a Luciferase Assay System kit (Promega) following the manufacturer's instructions. Briefly, the cell culture medium is removed and wells are washed with 200 μl of phosphate-buffered saline. To each well Passive Lysis buffer (Promega, Wis.) is added and the plates are incubated for 30 min with rocking to lyse the cells. Luciferin solution (50 μl, Promega) is added, and luciferase activity is measured with a Victor II luminometer (Perkin-Elmer). To determine HCV RNA levels, RNA extractions can be performed using the CellsDirect kit (Invitrogen), and the HCV RNA copy number can be measured using the SuperScript III Platinum One-Step qRT-PCR system (Invitrogen) and primers specific to the HCV 5′ nontranslated region. Cytotoxicity can be determined by the 3-[4,5-dimethylhiazol-2-yl]-2,5-diphenyltetrazolium bromide (MTT) colorimetric assay as follows. Replicon cells is plated in 96-well plates (4000 cells per well), the next day compound dilutions are added as in the activity assay, and the cells are grown in the presence of the inhibitors for 4 days. The MTT solution is diluted in DMEM containing 5% FBS and 60 μl of the solution is added to the cells. After 4 hrs, the cells are solubilized by the addition of 30 […]μl SDS (20% in 0.02 N HCl). The plates are incubated overnight and the optical density can be measured at 570 nm. To determine compounds' EC50 and TD50, luciferase, RNA inhibition and MTT data can be analyzed using the GraphPad Prism 4 software (equation: sigmoidal dose-response—variable slope).
(§2) The 1a-H77 replicon for transient assays further differs from the replicon in the stable cell line in that it contains NS2 through NS5B in the second cistron. The 1b-N strain replicon contains NS3 through NS5B in the second cistron, with adaptive mutations E1202G in NS3 and S2204I in NS5A. Mutagenesis can be performed using the Stratagene QuikChange XL II site-directed mutagenesis kit. Mutants' sequences can be confirmed, plasmids can be linearized with Xba I restriction enzyme and used as template for in vitro transcription reactions to make mutant replicon RNA for transient transfections. In vitro transcription can be performed with the T7 Megascript kit (Ambion).
(§3) Transient replicon transfections can be performed essentially as described by Mo et al. (Antimicrob Agents Chemother (2005) 49(10):4305-4314) with slight modifications. Fifteen micrograms of template RNA can be used to electroporate 3×10^6 cells in a 200 μl volume in a 0.2 cm cuvette. The cells used for transient transfections can be Huh7 cells obtained by curing replicon-containing cells with IFN (Mo et al., supra). Electroporation can be done with a Gene Pulser II (Bio-Rad, CA) at 480V and 25 μF, using two manual pulses. […]

[2] = test system: HCV replicon with a R155K mutation in a 1a-H77 background; experiment: transient replicon assay, R155K mutation in 1a-H77 background; settings: Hepatitis C virus, read-out: EC50 in a transient replicon assay with a R155K mutation in a 1a-H77 background
Procedure: as §1, §2, §3

[3] = test system: HCV replicon with a D168E mutation in a 1a-H77 background; experiment: transient replicon assay, D168E mutation in 1a-H77 background; settings: Hepatitis C virus, read-out: EC50 in a transient replicon assay with a D168E mutation in a 1a-H77 background
Procedure: as §1, §2, §3

`Cc1onc(C(=O)N[C@H]2CCCCC/C=C\[C@@H]3C[C@@]3(C(=O)NS(=O)(=O)C3(C)CC3)NC(=O)[C@@H]3C[C@@H](Oc4nc5ccccc5nc4C(C)(F)F)CN3C2=O)c1C` [Example 7, N-((2R,6S,13aS,14aR,16aS,Z)-2-(3-(1,1-difluoroethyl)quinoxalin-2-yloxy)-14a-(1-methylcyclopropylsulfonylcarbamoyl)-5,16-dioxo-1,2,3,5,6,7,8,9,10,11,13a,14,14a,15,16,16a-hexadecahydrocyclopropa[e]pyrrolo[1,2-a][1,4]diazacyclopentadecin-6-yl)-4,5-dimethylisoxazole-3-carboxamide] showed an EC50 [1] of 0.025 to 0.05 µM, an EC50 [2] of 0.001 to 0.01 µM and an EC50 [3] of under 0.003 µM.

For `Cc1onc(C(=O)N[C@H]2CCCCC/C=C\[C@@H]3C[C@@]3(C(=O)NS(=O)(=O)C3(C)CC3)NC(=O)[C@@H]3C[C@@H](Oc4nc5cc(F)ccc5nc4C(C)(F)F)CN3C2=O)c1C` [Example 120, N-((2R,6S,13aS,14aR,16aS,Z)-2-(3-(1,1-difluoroethyl)-7-fluoroquinoxalin-2-yloxy)-14a-(1-methylcyclopropylsulfonylcarbamoyl)-5,16-dioxo-1,2,3,5,6,7,8,9,10,11,13a,14,14a,15,16,16a-hexadecahydrocyclopropa[e]pyrrolo[1,2-a][1,4]diazacyclopentadecin-6-yl)-4,5-methylisoxazole-3-carboxamide], the EC50 [1] was under 0.025 µM, the EC50 [2] was under 0.001 µM and the EC50 [3] was under 0.003 µM.

In the case of `Cc1nc2cccc(F)c2nc1O[C@@H]1C[C@H]2C(=O)N[C@]3(C(=O)NS(=O)(=O)C4CC4)C[C@H]3/C=C\CCCCC[C@H](NC(=O)OC(C)(C)C)C(=O)N2C1` [Example 54, tert-butyl (2R,6S,13aS,14aR,16aS,Z)-14a-(cyclopropylsulfonylcarbamoyl)-2-(8-fluoro-3-methylquinoxalin-2-yloxy)-5,16-dioxo-1,2,3,5,6,7,8,9,10,11,13a,14,14a,15,16,16a-hexadecahydrocyclopropa[e]pyrrolo[1,2-a][1,4]diazacyclopentadecin-6-ylcarbamate], the EC50 [1] is reported as 0.05 to 0.25 µM, the EC50 [2] is reported as 0.001 to 0.01 µM and the EC50 [3] is reported as 0.02 to 0.05 µM.

In the case of `CC(C)[C@@H](C(=O)N[C@H]1CCCCC/C=C\[C@@H]2C[C@@]2(C(=O)NS(=O)(=O)C2CC2)NC(=O)[C@@H]2C[C@@H](Oc3nc4ccccc4nc3C(F)(F)F)CN2C1=O)N1CCCNC1=O` [Example 19, (2R,6S,13aS,14aR,16aS,Z)—N-(cyclopropylsulfonyl)-6-((S)-3-methyl-2-(2-oxotetrahydropyrimidin-1(2H)-yl)butanamido)-5,16-dioxo-2-(3-(trifluoromethyl)quinoxalin-2-yloxy)-1,2,3,5,6,7,8,9,10,11,13a,14,14a,15,16,16a-hexadecahydrocyclopropa[e]pyrrolo[1,2-a][1,4]diazacyclopentadecine-14a-carboxamide], the EC50 [1] is reported as over 1 µM, the EC50 [2] is reported as over 0.05 µM and the EC50 [3] is reported as over 0.1 µM.

`Cc1cc(C(=O)N[C@H]2CCCCC/C=C\[C@@H]3C[C@@]3(C(=O)NS(=O)(=O)C3CC3)NC(=O)[C@@H]3C[C@@H](Oc4nc5ccccc5nc4C(F)(F)F)CN3C2=O)[nH]n1` [Example 13] was tested, and the EC50 [1] was 0.25 to 1 µM, the EC50 [2] was 0.01 to 0.025 µM and the EC50 [3] was over 0.1 µM.

`Cc1cc(C(=O)N[C@H]2CCCCC/C=C\[C@@H]3C[C@@]3(C(=O)NS(=O)(=O)C3(C)CC3)NC(=O)[C@@H]3C[C@@H](Oc4nc5c(F)cccc5nc4C)CN3C2=O)no1` [Example 58, N-((2R,6S,13aS,14aR,16aS,Z)-2-(8-fluoro-3-methylquinoxalin-2-yloxy)-14a-(1-methylcyclopropylsulfonylcarbamoyl)-5,16-dioxo-1,2,3,5,6,7,8,9,10,11,13a,14,14a,15,16,16a-hexadecahydrocyclopropa[e]pyrrolo[1,2-a][1,4]diazacyclopentadecin-6-yl)-5-methylisoxazole-3-carboxamide] showed an EC50 [1] of under 0.025 µM, an EC50 [2] of under 0.001 µM and an EC50 [3] of 0.003 to 0.02 µM.

For `Cc1nc2cccc(F)c2nc1O[C@@H]1C[C@H]2C(=O)N[C@]3(C(=O)NS(=O)(=O)C4CC4)C[C@H]3/C=C\CCCCC[C@H](NC(=O)c3ccon3)C(=O)N2C1` [Example 55, N-((2R,6S,13aS,14aR,16aS,Z)-14a-(cyclopropylsulfonylcarbamoyl)-2-(8-fluoro-3-methylquinoxalin-2-yloxy)-5,16-dioxo-1,2,3,5,6,7,8,9,10,11,13a,14,14a,15,16,16a-hexadecahydrocyclopropa[e]pyrrolo[1,2-a][1,4]diazacyclopentadecin-6-yl)isoxazole-3-carboxamide], the EC50 [1] was 0.05 to 0.25 µM, the EC50 [2] was 0.001 to 0.01 µM and the EC50 [3] was 0.02 to 0.05 µM.

Work on `CC(F)(F)c1nc2ccccc2nc1O[C@@H]1C[C@H]2C(=O)N[C@]3(C(=O)NS(=O)(=O)C4(C)CC4)C[C@H]3/C=C\CCCCC[C@H](NC(=O)c3ccon3)C(=O)N2C1` [Example 5, N-((2R,6S,13aS,14aR,16aS,Z)-2-(3-(1,1-difluoroethyl)quinoxalin-2-yloxy)-14a-(1-methylcyclopropylsulfonylcarbamoyl)-5,16-dioxo-1,2,3,5,6,7,8,9,10,11,13a,14,14a,15,16,16a-hexadecahydrocyclopropa[e]pyrrolo[1,2-a][1,4]diazacyclopentadecin-6-yl)isoxazole-3-carboxamide] yielded an EC50 [1] of under 0.025 µM, an EC50 [2] of under 0.001 µM and an EC50 [3] of under 0.003 µM.

Molecule `CC(C)(C)OC(=O)N[C@H]1CCCCC/C=C\[C@@H]2C[C@@]2(C(=O)NS(=O)(=O)C2CC2)NC(=O)[C@@H]2C[C@@H](Oc3nc4cc(F)ccc4nc3C(F)(F)F)CN2C1=O` [Example 106, tert-butyl (2R,6S,13aS,14aR,16aS,Z)-14a-(cyclopropylsulfonylcarbamoyl)-2-(7-fluoro-3-(trifluoromethyl)quinoxalin-2-yloxy)-5,16-dioxo-1,2,3,5,6,7,8,9,10,11,13a,14,14a,15,16,16a-hexadecahydrocyclopropa[e]pyrrolo[1,2-a][1,4]diazacyclopentadecin-6-ylcarbamate] has an EC50 [1] of 0.05 to 0.25 µM, an EC50 [2] of under 0.001 µM and an EC50 [3] of 0.003 to 0.02 µM.

In the case of `Cc1cc(C(=O)N[C@H]2CCCCC/C=C\[C@@H]3C[C@@]3(C(=O)NS(=O)(=O)C3(C)CC3)NC(=O)[C@@H]3C[C@@H](Oc4nc5c(F)cccc5nc4C(F)(F)F)CN3C2=O)no1` [Example 115, N-((2R,6S,13aS,14aR,16aS,Z)-2-(8-fluoro-3-(trifluoromethyl)quinoxalin-2-yloxy)-14a-(1-methylcyclopropylsulfonylcarbamoyl)-5,16-dioxo-1,2,3,5,6,7,8,9,10,11,13a,14,14a,15,16,16a-hexadecahydrocyclopropa[e]pyrrolo[1,2-a][1,4]diazacyclopentadecin-6-yl)-5-methylisoxazole-3-carboxamide], the EC50 [1] is reported as under 0.025 µM, the EC50 [2] is reported as under 0.001 µM and the EC50 [3] is reported as under 0.003 µM.

With `Cn1ccc(C(=O)N[C@H]2CCCCC/C=C\[C@@H]3C[C@@]3(C(=O)NS(=O)(=O)C3CC3)NC(=O)[C@@H]3C[C@@H](Oc4nc5ccccc5nc4C(F)(F)F)CN3C2=O)n1` [Example 12] the EC50 [1] was 0.25 to 1 µM, the EC50 [2] was 0.01 to 0.025 µM and the EC50 [3] was 0.05 to 0.1 µM.
